Experiments:
[1] = for speed of sound / viscosity / mass density: 101 kPa, Liquid; for speed of sound: Frequency=2 MHz, Linear variable-path acoustic interferometer; for viscosity: Oscillating disk viscometry; for mass density: Vibrating tube method; for Normal melting temperature: Crystal, visual observation
[2] = xn = mol fraction of the nth substance listed; conditions: 101 kPa, Liquid, x2 = 0; for speed of sound: Frequency=2 MHz, Linear variable-path acoustic interferometer; for viscosity: Oscillating disk viscometry; for mass density: Vibrating tube method

C[NH+](C)C.O=P([O-])(O)O [trimethylammonium dihydrogen phosphate]
[1]
Conditions	mass density [kg/m3]	speed of sound [m/s]	viscosity [mPa·s]
298.15 K	1353.61	1672	7.64
303.15 K	1350.62	1660	6.46
308.15 K	1347.59	1661	5.61
313.15 K	1344.52	1664	5.07

Conditions	Normal melting temperature [°C]
[1]	116.00

C[S+](C)[O-] [dimethyl sulfoxide] + C[NH+](C)C.O=P([O-])(O)O
[2]
Conditions	mass density [kg/m3]	speed of sound [m/s]	viscosity [mPa·s]
298.15 K	1095.37	1496	1.99
303.15 K	1092.41	1472	1.8
308.15 K	1086.06	1460	1.65
313.15 K	1081.43	1442	1.54

C[S+](C)[O-] [dimethyl sulfoxide] + C[NH+](C)C.O=S(=O)([O-])O
[2]
Conditions	mass density [kg/m3]	speed of sound [m/s]	viscosity [mPa·s]
298.15 K	1095.37	1496	1.99
303.15 K	1092.41	1472	1.8
308.15 K	1086.06	1460	1.65
313.15 K	1081.43	1442	1.54

C[S+](C)[O-] [dimethyl sulfoxide] + CC(=O)[O-].C[NH+](C)C
[2]
Conditions	mass density [kg/m3]	speed of sound [m/s]	viscosity [mPa·s]
298.15 K	1095.37	1496	1.99
303.15 K	1092.41	1472	1.8
308.15 K	1086.06	1460	1.65
313.15 K	1081.43	1442	1.54

C[S+](C)[O-] [dimethyl sulfoxide]
[1]
Conditions	mass density [kg/m3]	speed of sound [m/s]	viscosity [mPa·s]
298.15 K	1095.37	1496	1.99
303.15 K	1092.41	1472	1.8
308.15 K	1086.06	1460	1.65
313.15 K	1081.43	1442	1.54

C[NH+](C)C.O=S(=O)([O-])O [trimethylammonium hydrogen sulfate]
[1]
Conditions	mass density [kg/m3]	speed of sound [m/s]	viscosity [mPa·s]
298.15 K	1467.58	1564	5.1
303.15 K	1463.57	1560	4.48
308.15 K	1463.5	1556	3.94
313.15 K	1455.63	1552	3.16

Conditions	Normal melting temperature [°C]
[1]	129.00

CC(=O)[O-].C[NH+](C)C [trimethylammonium acetate]
[1]
Conditions	mass density [kg/m3]	speed of sound [m/s]	viscosity [mPa·s]
298.15 K	1053.85	1544	2.76
303.15 K	1049.87	1514	2.37
308.15 K	1045.81	1508	2.06
313.15 K	1041.7	1490	1.83
